From patent US12258328B2, “6-membered heteroaryl-containing aminopyridine compounds as EGFR inhibitors” (YUHAN CORPORATION, priority 2021, dated 2025) come the findings set out here.

SMILES strings stand for the structures. Read-outs that look alike come from different tables or passages of the source.

In experiment [1] the target is EGFR del19/T790M/C797S (Homo sapiens, UniProt P00533, C797S/DEL746-750/T790M). As to the kind of experiment: Biochemical EGFR kinase assay (Lance Ultra TR-FRET), triple mutant del19/T790M/C797S. In outline:
(§1)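 Enzyme reactions lasted 1 hour at room temperature with test compounds between 0.003 and 10 μM, followed by 10 mM EDTA quench.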
(Time-resolved FRET reads energy transfer from a long-lived donor to a nearby acceptor.)

The target of experiment [2] is EGFR del19/C797S (Homo sapiens, UniProt P00533, C797S/DEL746-750). The experiment is described as follows: Biochemical EGFR kinase assay (Lance Ultra TR-FRET), double mutant del19/C797S. In outline:
as §1

Experiment [3] addresses EGFR L858R/T790M/C797S (Homo sapiens, UniProt P00533, C797S/L858R/T790M). As to the kind of experiment: Biochemical EGFR kinase assay (Lance Ultra TR-FRET), triple mutant L858R/T790M/C797S. An outline of the steps:
as §1

Experiment [4] concerns the target EGFR wildtype (Homo sapiens, UniProt P00533). As to the kind of experiment: Biochemical EGFR kinase assay (Lance Ultra TR-FRET), wildtype. An outline of the steps: as §1
Experiment [5] has as its target EGFR L858R/C797S (Homo sapiens, UniProt P00533, C797S/L858R). As to the kind of experiment: Biochemical EGFR kinase assay (Lance Ultra TR-FRET), double mutant L858R/C797S. An outline of the steps: as §1
The mark [6] stands for this setting: ATP at Km, read-out: IC50 del19/T790M/C797S, Km ATP.
The mark [7] stands for this setting: IC50 del19/T790M/C797S, 100 μM ATP.
Where [8] appears, read: ATP at Km, read-out: IC50 del19/C797S, Km ATP.
The mark [9] stands for this setting: ATP at Km, read-out: IC50 L858R/T790M/C797S, Km ATP.
[10] abbreviates: IC50 L858R/T790M/C797S, 100 μM ATP.
Where [11] appears, read: ATP at Km, read-out: IC50 WT, Km ATP.
Setting [12] is: ATP at Km, read-out: IC50 L858R/C797S, Km ATP.

Chain of EGFR del19/C797S (P00533 with tags, fused parts or gaps DEL746-750/C797S): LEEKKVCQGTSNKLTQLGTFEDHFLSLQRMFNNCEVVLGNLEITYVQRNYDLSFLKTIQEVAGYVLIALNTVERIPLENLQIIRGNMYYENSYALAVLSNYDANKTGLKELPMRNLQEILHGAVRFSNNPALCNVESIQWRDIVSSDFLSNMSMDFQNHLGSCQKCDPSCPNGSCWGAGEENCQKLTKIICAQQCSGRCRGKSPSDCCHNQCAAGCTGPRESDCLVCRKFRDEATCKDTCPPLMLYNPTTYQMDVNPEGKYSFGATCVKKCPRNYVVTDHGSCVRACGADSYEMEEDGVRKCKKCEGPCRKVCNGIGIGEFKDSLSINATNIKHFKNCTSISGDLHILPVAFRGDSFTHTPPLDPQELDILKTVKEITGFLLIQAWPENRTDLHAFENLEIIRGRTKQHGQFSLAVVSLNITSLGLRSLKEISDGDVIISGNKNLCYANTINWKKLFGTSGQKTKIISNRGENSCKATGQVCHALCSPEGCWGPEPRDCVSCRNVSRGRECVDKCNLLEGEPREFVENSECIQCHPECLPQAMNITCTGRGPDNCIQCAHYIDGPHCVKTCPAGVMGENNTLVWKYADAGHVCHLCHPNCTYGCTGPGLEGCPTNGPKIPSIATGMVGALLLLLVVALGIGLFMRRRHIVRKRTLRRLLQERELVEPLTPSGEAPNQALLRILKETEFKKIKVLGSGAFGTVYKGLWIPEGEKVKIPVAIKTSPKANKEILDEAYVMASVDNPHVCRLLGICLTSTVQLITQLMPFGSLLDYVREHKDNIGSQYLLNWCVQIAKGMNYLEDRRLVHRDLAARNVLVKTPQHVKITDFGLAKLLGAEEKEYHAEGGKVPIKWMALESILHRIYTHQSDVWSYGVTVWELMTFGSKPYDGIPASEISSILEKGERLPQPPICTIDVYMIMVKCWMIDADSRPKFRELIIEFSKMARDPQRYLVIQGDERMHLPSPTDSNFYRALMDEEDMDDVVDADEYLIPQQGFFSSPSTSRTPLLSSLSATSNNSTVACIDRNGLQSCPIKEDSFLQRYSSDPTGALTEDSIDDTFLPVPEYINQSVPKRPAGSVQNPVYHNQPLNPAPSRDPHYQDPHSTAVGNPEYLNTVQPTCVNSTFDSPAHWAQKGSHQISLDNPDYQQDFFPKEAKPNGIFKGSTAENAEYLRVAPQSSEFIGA
Chain of EGFR L858R/T790M/C797S (P00533 25-1210 T790M/C797S/L858R): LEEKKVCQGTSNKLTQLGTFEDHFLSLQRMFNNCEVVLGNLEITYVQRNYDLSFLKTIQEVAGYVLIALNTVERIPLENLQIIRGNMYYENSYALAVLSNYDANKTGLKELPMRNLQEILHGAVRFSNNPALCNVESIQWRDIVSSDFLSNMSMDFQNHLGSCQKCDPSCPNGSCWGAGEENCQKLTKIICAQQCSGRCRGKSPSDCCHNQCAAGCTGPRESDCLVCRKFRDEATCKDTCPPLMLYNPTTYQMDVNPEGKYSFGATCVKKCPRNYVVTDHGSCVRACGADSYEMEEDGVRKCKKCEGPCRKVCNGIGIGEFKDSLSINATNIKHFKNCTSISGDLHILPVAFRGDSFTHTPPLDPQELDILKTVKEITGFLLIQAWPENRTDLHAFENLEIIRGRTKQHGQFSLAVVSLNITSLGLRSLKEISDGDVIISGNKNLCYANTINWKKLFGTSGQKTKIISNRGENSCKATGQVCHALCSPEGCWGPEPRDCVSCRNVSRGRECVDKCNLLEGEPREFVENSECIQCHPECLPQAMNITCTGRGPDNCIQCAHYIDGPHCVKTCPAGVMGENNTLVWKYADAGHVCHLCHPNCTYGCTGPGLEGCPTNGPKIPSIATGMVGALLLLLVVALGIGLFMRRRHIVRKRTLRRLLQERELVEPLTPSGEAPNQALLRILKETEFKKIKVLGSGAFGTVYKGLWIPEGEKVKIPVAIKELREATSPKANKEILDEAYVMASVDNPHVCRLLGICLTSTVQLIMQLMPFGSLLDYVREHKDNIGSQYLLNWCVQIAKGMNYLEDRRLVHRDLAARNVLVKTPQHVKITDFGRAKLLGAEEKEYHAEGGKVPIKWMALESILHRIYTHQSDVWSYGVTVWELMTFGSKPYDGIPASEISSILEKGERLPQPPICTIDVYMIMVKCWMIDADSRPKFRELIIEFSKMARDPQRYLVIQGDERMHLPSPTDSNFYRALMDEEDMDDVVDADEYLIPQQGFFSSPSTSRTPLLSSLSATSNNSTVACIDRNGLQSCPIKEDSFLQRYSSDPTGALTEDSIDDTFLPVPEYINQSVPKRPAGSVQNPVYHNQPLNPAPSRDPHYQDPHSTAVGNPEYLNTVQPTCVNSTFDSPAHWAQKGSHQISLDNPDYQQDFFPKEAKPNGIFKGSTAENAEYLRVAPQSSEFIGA
Chain of EGFR wildtype (P00533 25-1210): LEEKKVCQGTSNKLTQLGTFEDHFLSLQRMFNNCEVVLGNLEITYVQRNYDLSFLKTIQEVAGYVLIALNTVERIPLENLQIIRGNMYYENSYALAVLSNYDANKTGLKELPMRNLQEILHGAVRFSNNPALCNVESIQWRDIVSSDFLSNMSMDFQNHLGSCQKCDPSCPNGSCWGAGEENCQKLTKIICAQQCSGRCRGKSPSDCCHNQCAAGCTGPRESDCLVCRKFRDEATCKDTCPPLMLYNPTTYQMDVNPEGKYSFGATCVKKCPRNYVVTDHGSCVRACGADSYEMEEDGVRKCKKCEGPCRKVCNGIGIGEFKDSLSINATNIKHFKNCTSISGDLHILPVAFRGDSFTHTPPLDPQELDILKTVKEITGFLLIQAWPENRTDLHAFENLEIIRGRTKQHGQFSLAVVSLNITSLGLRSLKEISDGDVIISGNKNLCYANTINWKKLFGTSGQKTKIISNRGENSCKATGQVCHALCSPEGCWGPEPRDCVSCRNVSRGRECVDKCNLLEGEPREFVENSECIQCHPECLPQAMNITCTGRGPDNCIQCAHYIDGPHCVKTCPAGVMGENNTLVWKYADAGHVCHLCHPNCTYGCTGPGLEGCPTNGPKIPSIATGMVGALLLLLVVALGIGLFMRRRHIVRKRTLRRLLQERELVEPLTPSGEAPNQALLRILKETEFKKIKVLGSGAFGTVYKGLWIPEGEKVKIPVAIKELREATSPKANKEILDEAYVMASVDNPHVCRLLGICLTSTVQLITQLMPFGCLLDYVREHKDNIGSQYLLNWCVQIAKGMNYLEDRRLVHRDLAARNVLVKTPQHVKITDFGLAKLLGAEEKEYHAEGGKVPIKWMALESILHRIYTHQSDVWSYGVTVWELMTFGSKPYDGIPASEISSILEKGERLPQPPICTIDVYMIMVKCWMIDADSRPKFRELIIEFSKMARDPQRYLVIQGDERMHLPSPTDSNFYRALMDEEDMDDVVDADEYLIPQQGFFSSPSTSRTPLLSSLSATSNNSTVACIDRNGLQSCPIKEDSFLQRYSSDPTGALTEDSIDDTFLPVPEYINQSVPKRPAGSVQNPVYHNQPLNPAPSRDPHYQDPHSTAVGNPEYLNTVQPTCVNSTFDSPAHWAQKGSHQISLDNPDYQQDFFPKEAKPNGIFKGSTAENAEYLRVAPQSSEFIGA
Chain of EGFR del19/T790M/C797S (P00533 with tags, fused parts or gaps DEL746-750/T790M/C797S): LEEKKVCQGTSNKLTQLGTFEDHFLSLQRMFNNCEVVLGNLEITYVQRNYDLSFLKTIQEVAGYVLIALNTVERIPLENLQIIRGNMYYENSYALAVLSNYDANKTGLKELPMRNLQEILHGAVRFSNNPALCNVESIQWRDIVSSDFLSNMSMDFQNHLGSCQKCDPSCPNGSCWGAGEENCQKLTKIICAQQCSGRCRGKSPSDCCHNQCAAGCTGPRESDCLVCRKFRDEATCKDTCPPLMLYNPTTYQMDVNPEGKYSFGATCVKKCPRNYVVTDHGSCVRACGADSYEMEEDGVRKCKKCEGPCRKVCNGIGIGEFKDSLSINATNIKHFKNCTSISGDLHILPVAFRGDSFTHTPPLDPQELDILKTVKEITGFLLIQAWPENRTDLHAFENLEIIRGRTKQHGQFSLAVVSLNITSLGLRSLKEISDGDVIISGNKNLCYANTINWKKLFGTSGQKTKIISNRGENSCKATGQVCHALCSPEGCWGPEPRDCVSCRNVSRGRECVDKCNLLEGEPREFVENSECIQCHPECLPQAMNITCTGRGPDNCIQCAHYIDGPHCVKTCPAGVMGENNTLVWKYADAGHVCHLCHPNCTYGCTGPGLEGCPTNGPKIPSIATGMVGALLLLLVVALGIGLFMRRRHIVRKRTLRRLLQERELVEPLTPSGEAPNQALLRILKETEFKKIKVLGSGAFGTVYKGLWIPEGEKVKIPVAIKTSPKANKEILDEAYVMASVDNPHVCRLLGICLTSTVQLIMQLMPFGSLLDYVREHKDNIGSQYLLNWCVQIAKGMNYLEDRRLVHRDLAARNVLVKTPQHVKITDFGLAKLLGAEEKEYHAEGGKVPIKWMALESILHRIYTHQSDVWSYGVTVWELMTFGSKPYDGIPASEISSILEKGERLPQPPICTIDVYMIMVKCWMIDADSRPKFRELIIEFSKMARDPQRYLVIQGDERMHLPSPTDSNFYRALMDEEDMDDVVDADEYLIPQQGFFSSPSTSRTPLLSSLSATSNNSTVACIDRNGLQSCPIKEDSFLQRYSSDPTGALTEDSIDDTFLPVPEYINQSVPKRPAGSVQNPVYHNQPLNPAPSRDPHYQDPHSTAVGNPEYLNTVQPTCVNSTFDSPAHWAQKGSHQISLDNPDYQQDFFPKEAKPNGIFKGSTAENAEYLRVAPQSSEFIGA

Take `O=C(c1ccc(-c2cnc(Nc3ccnc(-c4cnn(S(=O)(=O)C5CC5)c4)n3)cc2N[C@H]2CC[C@@H](CO)CC2)nc1)N1CCOCC1` [Example 200, (6′-((2-(1-(Cyclopropylsulfonyl)-1H-pyrazol-4-yl)pyrimidin-4-yl)amino)-4′-(((1s,4s)-4-(hydroxymethyl)cyclohexyl)amino)-[2,3′-bipyridin]-5-yl)(morpholino)methanone]: the IC50 in experiment [1] (setting [6]) was determined as 0.1 nM; in experiment [1] (setting [7]), 0.2 nM; in experiment [2] (setting [8]), 0.3 nM; in experiment [2] (IC50 del19/C797S, 100 μM ATP) it was 0.3 nM; in experiment [3] (setting [9]), 0.1 nM; in experiment [3] (setting [10]), 0.2 nM. The IC50 was 0.6 nM in experiment [4] (setting [11]); 134 nM in experiment [4] (IC50 WT, 100 μM ATP); 0.2 nM in experiment [5] (setting [12]); 0.6 nM in experiment [5] (IC50 L858R/C797S, 100 μM ATP).

As to `CC(C)(O)[C@H]1CC[C@@H](Nc2cc(Nc3ccnc(-c4cnn(S(=O)(=O)C5CC5)c4)n3)ncc2-c2ccc(C(=O)N3CCOCC3)cn2)CC1` [Example 201, (6′-((2-(1-(Cyclopropylsulfonyl)-1H-pyrazol-4-yl)pyrimidin-4-yl)amino)-4′-(((1s,4s)-4-(2-hydroxypropan-2-yl)cyclohexyl)amino)-[2,3′-bipyridin]-5-yl)(morpholino)methanone], the IC50 in experiment [1] (setting [6]) stood at 0.3 nM; in experiment [1] (setting [7]), 0.4 nM; in experiment [2] (setting [8]), 0.5 nM; in experiment [2] (IC50 del19/C797S, 100 μM ATP), 0.6 nM; in experiment [3] (setting [9]) it was 0.1 nM; in experiment [3] (setting [10]), 0.4 nM. For the same compound, the IC50 in experiment [4] (setting [11]) was 2.2 nM; in experiment [4] (IC50 WT, 100 μM ATP), 1040 nM; in experiment [5] (setting [12]), 0.5 nM; in experiment [5] (IC50 L858R/C797S, 100 μM ATP), 1.8 nM.

As for `CN1CCN(C(=O)c2ccc(-c3cnc(Nc4ccnc(-c5cnn(S(=O)(=O)C6CC6)c5)n4)cc3N[C@H]3CC[C@@H](CO)CC3)nc2)CC1` [Example 202, (6′-((2-(1-(Cyclopropylsulfonyl)-1H-pyrazol-4-yl)pyrimidin-4-yl)amino)-4′-(((1s,4s)-4-(hydroxymethyl)cyclohexyl)amino)-[2,3′-bipyridin]-5-yl)(4-methylpiperazin-1-yl)methanone], the IC50 was determined as 0.2 nM in experiment [1] (setting [6]); 0.3 nM in experiment [1] (setting [7]); 0.1 nM in experiment [2] (setting [8]); 0.2 nM in experiment [2] (IC50 del19/C797S, 100 μM ATP); 0.1 nM in experiment [3] (setting [9]); 0.1 nM in experiment [3] (setting [10]). The IC50 came out at 0.2 nM in experiment [4] (setting [11]); 94.2 nM in experiment [4] (IC50 WT, 100 μM ATP); 0.03 nM in experiment [5] (setting [12]); 0.3 nM in experiment [5] (IC50 L858R/C797S, 100 μM ATP).

With `CN1CCN(C(=O)c2ccc(-c3cnc(Nc4ccnc(-c5cnn(S(=O)(=O)C6CC6)c5)n4)cc3N[C@H]3CC[C@@H](C(C)(C)O)CC3)nc2)CC1` [Example 203, (6′-((2-(1-(Cyclopropylsulfonyl)-1H-pyrazol-4-yl)pyrimidin-4-yl)amino)-4′-(((1s,4s)-4-(2-hydroxypropan-2-yl)cyclohexyl)amino)-[2,3′-bipyridin]-5-yl)(4-methylpiperazin-1-yl)methanone], the IC50 in experiment [1] (setting [6]) turned out to be 0.4 nM; in experiment [1] (setting [7]), 0.7 nM; in experiment [2] (setting [8]) it was 0.1 nM; in experiment [2] (IC50 del19/C797S, 100 μM ATP) it was 0.3 nM; in experiment [3] (setting [9]), 0.2 nM; in experiment [3] (setting [10]), 0.3 nM. The IC50 came to 0.3 nM in experiment [4] (setting [11]); 395 nM in experiment [4] (IC50 WT, 100 μM ATP); 0.1 nM in experiment [5] (setting [12]); 0.8 nM in experiment [5] (IC50 L858R/C797S, 100 μM ATP).

`CN1CCN(C(=O)c2ccc(-c3cnc(Nc4ccnc(-c5cnn(S(=O)(=O)C6CC6)c5)n4)cc3N[C@H]3CC[C@@H](CN(C)C)CC3)nc2)CC1` [Example 204, (6′-((2-(1-(Cyclopropylsulfonyl)-1H-pyrazol-4-yl)pyrimidin-4-yl)amino)-4′-(((1s,4s)-4-((dimethylamino)methyl)cyclohexyl)amino)-[2,3′-bipyridin]-5-yl)(4-methylpiperazin-1-yl)methanone]: the IC50 came out at 0.1 nM in experiment [1] (setting [6]); 0.1 nM in experiment [1] (setting [7]); 0.2 nM in experiment [2] (setting [8]); 0.2 nM in experiment [2] (IC50 del19/C797S, 100 μM ATP); 0.1 nM in experiment [3] (setting [9]); 0.1 nM in experiment [3] (setting [10]). Besides, the IC50 came to 0.4 nM in experiment [4] (setting [11]); 124 nM in experiment [4] (IC50 WT, 100 μM ATP); 0.1 nM in experiment [5] (setting [12]); 1 nM in experiment [5] (IC50 L858R/C797S, 100 μM ATP).

For `C[C@]1(O)CC[C@@H](Nc2cc(Nc3ccnc(-c4cnn(S(=O)(=O)C5CC5)c4)n3)ncc2-c2ccc(OCCO)cn2)CC1` [Example 205, (1s,4s)-4-((6′-((2-(1-(Cyclopropylsulfonyl)-1H-pyrazol-4-yl)pyrimidin-4-yl)amino)-5-(2-hydroxyethoxy)-[2,3′-bipyridin]-4′-yl)amino)-1-methylcyclohexan-1-ol], the IC50 in experiment [1] (setting [6]) worked out at 0.3 nM; in experiment [1] (setting [7]), 0.7 nM; in experiment [2] (setting [8]), 0.7 nM; in experiment [2] (IC50 del19/C797S, 100 μM ATP), 0.6 nM; in experiment [3] (setting [9]) it was 0.2 nM; in experiment [3] (setting [10]), 0.2 nM. In addition, the IC50 in experiment [4] (setting [11]) is 2 nM; in experiment [4] (IC50 WT, 100 μM ATP), 1440 nM; in experiment [5] (setting [12]), 0.4 nM; in experiment [5] (IC50 L858R/C797S, 100 μM ATP), 3.5 nM.

With `O=S(=O)(C1CC1)n1cc(-c2nccc(Nc3cc(N[C@H]4CC[C@@H](CO)CC4)c(-c4ccc(OCCO)cn4)cn3)n2)cn1` [Example 206, 2-((6′-((2-(1-(Cyclopropylsulfonyl)-1H-pyrazol-4-yl)pyrimidin-4-yl)amino)-4′-(((1s,4s)-4-(hydroxymethyl)cyclohexyl)amino)-[2,3′-bipyridin]-5-yl)oxy)ethan-1-ol], the IC50 turned out to be 0.6 nM in experiment [1] (setting [6]); 0.9 nM in experiment [1] (setting [7]); 0.7 nM in experiment [2] (setting [8]); 0.6 nM in experiment [2] (IC50 del19/C797S, 100 μM ATP); 0.3 nM in experiment [3] (setting [9]); 0.4 nM in experiment [3] (setting [10]). For the same compound, the IC50 in experiment [4] (setting [11]) was 1.2 nM; in experiment [4] (IC50 WT, 100 μM ATP), 348 nM; in experiment [5] (setting [12]), 0.4 nM; in experiment [5] (IC50 L858R/C797S, 100 μM ATP), 2.4 nM.

On to `CN(C)CCOc1ccc(-c2cnc(Nc3ccnc(-c4cnn(S(=O)(=O)C5CC5)c4)n3)cc2N[C@H]2CC[C@@](C)(O)CC2)nc1` [Example 208, (1s,4s)-4-((6′-((2-(1-(Cyclopropylsulfonyl)-1H-pyrazol-4-yl)pyrimidin-4-yl)amino)-5-(2-(dimethylamino)ethoxy)-[2,3′-bipyridin]-4′-yl)amino)-1-methylcyclohexan-1-ol], for which the IC50 in experiment [1] (setting [6]) stood at 0.1 nM; in experiment [1] (setting [7]), 0.2 nM; in experiment [2] (setting [8]) it was 0.2 nM; in experiment [2] (IC50 del19/C797S, 100 μM ATP), 0.3 nM; in experiment [3] (setting [9]) it was 0.1 nM; in experiment [3] (setting [10]), 0.2 nM. Also, the IC50 in experiment [4] (setting [11]) turned out to be 0.3 nM; in experiment [4] (IC50 WT, 100 μM ATP), 243 nM; in experiment [5] (setting [12]) it was 0.1 nM; in experiment [5] (IC50 L858R/C797S, 100 μM ATP), 0.6 nM.

Take `CN(C)CCOc1ccc(-c2cnc(Nc3ccnc(-c4cnn(S(=O)(=O)C5CC5)c4)n3)cc2N[C@H]2CC[C@@H](CO)CC2)nc1` [Example 209, ((1s,4s)-4-((6′-((2-(1-(Cyclopropylsulfonyl)-1H-pyrazol-4-yl)pyrimidin-4-yl)amino)-5-(2-(dimethylamino)ethoxy)-[2,3′-bipyridin]-4′-yl)amino)cyclohexyl)methanol]: the IC50 in experiment [1] (setting [6]) came out at 0.1 nM; in experiment [1] (setting [7]), 0.2 nM; in experiment [2] (setting [8]), 0.1 nM; in experiment [2] (IC50 del19/C797S, 100 μM ATP), 0.3 nM; in experiment [3] (setting [9]), 0.1 nM; in experiment [3] (setting [10]), 0.2 nM. Moreover, the IC50 in experiment [4] (setting [11]) is 0.2 nM; in experiment [4] (IC50 WT, 100 μM ATP) it was 99.2 nM; in experiment [5] (setting [12]) it was 0.1 nM; in experiment [5] (IC50 L858R/C797S, 100 μM ATP), 0.6 nM.

Regarding `CN(C)CCOc1ccc(-c2cnc(Nc3ccnc(-c4cnn(S(=O)(=O)C5CC5)c4)n3)cc2N[C@H]2CC[C@@H](C(C)(C)O)CC2)nc1` [Example 210, 2-((1s,4s)-4-((6′-((2-(1-(Cyclopropylsulfonyl)-1H-pyrazol-4-yl)pyrimidin-4-yl)amino)-5-(2-(dimethylamino)ethoxy)-[2,3′-bipyridin]-4′-yl)amino)cyclohexyl)propan-2-ol], the IC50 in experiment [1] (setting [6]) worked out at 0.3 nM; in experiment [1] (setting [7]) it was 0.4 nM; in experiment [2] (setting [8]) it was 0.3 nM; in experiment [2] (IC50 del19/C797S, 100 μM ATP), 0.5 nM; in experiment [3] (setting [9]) it was 0.2 nM; in experiment [3] (setting [10]), 0.3 nM. For the same compound, the IC50 turned out to be 0.6 nM in experiment [4] (setting [11]); 426 nM in experiment [4] (IC50 WT, 100 μM ATP); 0.1 nM in experiment [5] (setting [12]); 1.8 nM in experiment [5] (IC50 L858R/C797S, 100 μM ATP).

For the compound `C[C@]1(O)CC[C@@H](Nc2cc(Nc3ccnc(-c4cnn(S(=O)(=O)C5CC5)c4)n3)ncc2-c2cc(OCCN3CCOCC3)ccn2)CC1` [Example 211, (1s,4s)-4-((6′-((2-(1-(Cyclopropylsulfonyl)-1H-pyrazol-4-yl)pyrimidin-4-yl)amino)-4-(2-morpholinoethoxy)-[2,3′-bipyridin]-4′-yl)amino)-1-methylcyclohexan-1-ol], the IC50 came to 0.3 nM in experiment [1] (setting [6]); 0.5 nM in experiment [1] (setting [7]); 2.4 nM in experiment [2] (IC50 del19/C797S, 100 μM ATP); 0.1 nM in experiment [3] (setting [9]); 0.4 nM in experiment [3] (setting [10]); 6.9 nM in experiment [4] (setting [11]). Also, the IC50 in experiment [4] (IC50 WT, 100 μM ATP) was found to be 9480 nM; in experiment [5] (setting [12]), 0.5 nM; in experiment [5] (IC50 L858R/C797S, 100 μM ATP), 30.1 nM.
